Data as given in ChEMBL document CHEMBL1155680, “A new bioactive triene aldehyde from the marine sponge Leucetta microraphis” (J Nat Prod, 2000).
Active and inactive are the calls of the source. No cut-off for these calls is given here.

Test system: HeLa
Test: Growth inhibition of human HeLa S3 cells at 10 ug/ml after 72 hrs by crystal violet assay
Assay type: functional, cell-based

CCCCCCCCCC/C=C\C/C=C\CC/C=C(\C)C=O
Activity: Active
